System: A549 tumor cells
Experiment: A549 subcutaneous mouse xenograft model, GRN163L and/or gemcitabine
Format: in vivo, mice
Details: A549 s.c. xenograft, 60 days; gemcitabine 100 mg/kg IP, GRN163L 15 mg/kg IP
Description: In one exemplary method, gemcitabine is administered in combination with a telomerase-inhibitor oligonucleotide targeted against hTR. […] Groups of 10 mice each were treated in accordance with one of three protocols: (1) Gemcitabine (100 mg/kg, IP) was administered 2 times/week for the first 1.5 weeks, then once weekly for the remainder of the study. […] (3) The two agents were administered together according to the individual-agent protocols.

Cl.Nc1ccn([C@@H]2O[C@H](CO)[C@@H](O)C2(F)F)c(=O)n1 (single isomer, unassigned) [gemcitabine, 2′-deoxy-2′,2′-difluorocytidine monohydrochloride ((beta)-isomer)]
tumor growth during the treatment period: effective in preventing tumor growth
